Data on one compound can be found in patent US20230047816A1 (priority 2018, published 2023).

For assay [1], the system named is Cln7Δex2 mice. Put plainly: AZ67 in vivo administration in Batten disease model. The note with it: 1 nmol/mouse intracerebroventricularly every 24 h, two months. On the procedure:
AZ67 for in vivo usage was dissolved in 20% (wt/vol) PEG200 in PBS to a 20 mM concentration. 4 groups were generated (4-6 animals/group), namely: WT-vehicle, CLN7Δex2-vehicle, WT-AZ67, CLN7Δex2-AZ67. The canula was inserted intracerebroventricularly at the age of 8 weeks and, after at least of 15 days of recovery, we injected the AZ67 at the dose identified previously (l nmol/mouse) every 24 h. The duration of the experiment was determined by the presence of hindlimb clasping the CLN7Δex2-control (vehicle), being this time two months. After this, the animals were perfused, and their brains dissected to be investigated by immunofluorescence and electron microscopy (EM).
Mice (5 months for AZ67 intraventricular injections; 3 months for mCAT expression approach) were anaesthetized by intraperitoneal injection of a mixture of xylazine hydrochloride (Rompun; Bayer) and ketamine hydrochloride/chlorbutol (Imalgene; Merial) (1:4) at 1 ml per kg body weight and then perfused intra-aortically with 0.9% NaCl followed by 5 ml p/g body weight of Somogyi (4% (wt/vol) paraformaldehyde, and 0.2% (vol/vol) picric acid, in 0.1 M PB; pH 7.4). After perfusion, brains were dissected out sagitally in two parts and post-fixed with Somogyi for 2 h at room temperature. Brain blocks were rinsed successively for 10 min, 30 min and 2 h with 0.1 M PB solution and cryoprotected in 10%, 20% and 30% (wt/vol) sucrose in PB sequentially, until they sank. After cryoprotection, 40-m-thick sagittal sections were obtained with a freezing-sliding cryostat (Leica). Sectioning of WT and Cln7Δex2 brains were performed under the same conditions and sessions. The sections were collected serially in a 12-well plate in 0.1 M PB, rinsed three times for 10 min in 0.1 M PB and used for subsequent immunohistochemistry and lipofuscin observation. The section-containing wells that were not used were kept in freezer mix (30% (vol/vol) polyethylene glycol, 30% (vol/vol) glycerol in 0.1 M PB) at −20° C. […]
Sections were examined with epifluorescence and the appropriate filter sets under an Operetta CLS high-content imaging system (PerkinElmer). […] Images were analysed with the Harmony software with PhenoLOGIC (PerkinElmer). Interest brain areas (cortex, hippocampus and cerebellum) were selected and subsequently quantified as mean intensity per area by using the ‘measure rectangle’ function, which represents the mean intensity of a channel per selected area.

Assay [2] relates to neurons from Cln7 knock out (KO) mice. The assay can be described thus: In vitro model of Batten disease, active Caspase-3 Western blot. The conditions noted are these: 10 nM, 24 hours. Type of assay: cell-based, mouse. On the procedure:
Primary cultures of C57BL/6J WT and Cln7Δex2 mice cortical neurons were prepared from fetal animals of 14.5 days of gestation, seeded at 1.8·10^5 cells/cm2 in plastic plates coated with poly-D-lysine […] and incubated in Neurobasal (Life Technologies) supplemented with 2 mM glutamine, 5 mM of glucose, 0.25 mM pyruvate and 2% B27 supplement (Life Technologies). Cells were incubated at 37° C. in a humidified 5% CO2-containing atmosphere. At 72 hours after plating, medium was replaced using Neurobasal (Life Technologies) supplemented with 2 mM glutamine, 5 mM glucose, 0.25 mM pyruvate and 2% B27 supplement (Life Technologies) minus antioxidants (MAO; i.e., lacking vitamin E, vitamin E acetate, superoxide dismutase, catalase, and glutathione). Six days after the plating medium was replaced again. Cells were used at day 9.
Neurons were incubated with 10 nM or vehicle for 24 hours and apoptosis was evaluated by measuring the level of active Caspase-3 form using Western blot. Neurons were lysed in RIPA buffer (2% sodium dodecylsulphate, 2 mM EDTA, 2 mM EGTA and 50 mM Tris pH 7.5), supplemented with protease and phosphatase inhibitor cocktail (100 μM phenylmethylsulfonyl fluoride, 50 μg/ml antipapain, 50 μg/ml pepstatin, 50 μg/ml amastatin, 50 μg/ml leupeptin, 50 μg/ml bestatin, 1 mM o-vanadate, 50 mM NaF, and 50 μg/ml soybean trypsin inhibitor) and boiled for 5 min. […]

Assay [3] relates to Caenorhabditis elegans N2. Put plainly: C. elegans life span in 96 well microtiter plates. The conditions noted are these: strain N2. In kind it is in vivo. From the text:
The test of AZ67 compound had been made according to protocol disclosed in Solis, G. M., Petrascheck, M. Measuring Caenorhabditis elegans

Consider `Cc1noc(C)c1Cn1cc(C#N)c2cc(Oc3ccc(NC(=O)[C@@H]4CCCN4)cc3)ccc21` [AZ67, (2S)-N-[4-({3-cyano-1-[(3,5-dimethyl-1,2-oxazol-4-yl)methyl]-1H-indol-5-yl}oxy)phenyl]pyrrolidine-2-carboxamide], for which, in assay [1], the “accumulation of SCMAS in the cortex” value is “prevented”, the “accumulation of lipofuscin in the cortex” value is given as “prevented”, the “accumulation of reactive astroglia in the cortex” value is on record as “prevented” and the hindlimb paralysis result is given as “prevented”. Besides, in assay [2], the “apoptosis level (active Caspase-3)” value is “significantly reduced”. For the same compound, in assay [3] (Conc 10 uM, set AI), the “% LS change” value is given as −8% and the “Lifespan” value is listed as 18.81 days. Besides, in assay [3] (Conc 100 uM, set AI), the “% LS change” value was found to be 24% and the “Lifespan” value is recorded as 25.45 days. In assay [3] (conc 10, set Aib), the “% LS change” value came to 15% and the “Lifespan” value is 25.98 days. Moreover, in assay [3] (conc 100, set Aib), the “% LS change” value was determined as 22% and the “Lifespan” value was 27.47 days.
